# Where a name gives a salt, the structure may show the parent alone. Read-outs that look alike come from different tables or passages of the source.
# Assays:
# [1] = system: unilateral ureteral obstruction (UUO) kidneys; assay: IP cysteamine HCL dose trial in UUO mice; type: in vivo
# Method: Unilateral ureteral obstruction (UUO) was performed on ten mice.
# [2] = Plasma cysteamine levels by mass spectrometry; type: in vivo, mice; settings: for plasma levels of cysteamine at the time of sacrifice: day 14 after UUO
# Method: Plasma cysteamine levels were measured by mass spectrometry by the reference laboratory at UC San Diego that also runs most of the human samples for the North American patients with cystinosis.
# Plasma levels were taken every hour during the evening (for 12 hours) and every four hours during the day (n=4/group).
# [3] = system: unilateral ureteral obstruction (UUO) kidneys; settings: for severity of fibrosis as measured by total collagen content: day 14 after UUO
# Method: Mice were sacrificed at day 14 after UUO and total renal collagen levels (μg hydroxyproline/mg) were measured. Total collagen in the tissue was calculated on the assumption that collagen contains 12.7% hydroxyproline by weight.
# fibronectin = assay: ECM gene mRNA by real-time qPCR in UUO kidneys: fibronectin; type: in vivo, mice; settings: day 7 after UUO
# Method: (§1) Unilateral ureteral obstruction (UUO) was performed on 8 week-old wild-type male mice on a C57BL6 background. […] The kidneys were harvested at 3, 7, and 14 days after UUO.
# (§2) Extracellular matrix (ECM) gene mRNA levels were measured by semiquantitative real-time PCR (qPCR) in both doses at 3, 7 and 14 days after UUO. Real-time qPCR) was performed with specific primers for collagen 1A1, collagen 3A1, fibronectin, and other profibrotic and proinflammatory genes using standard protocols. Semi-quantitative real-time qPCR data was analyzed with REST software using both GAPDH and 18S as reference genes. Reactions were run in triplicate, and mean threshold crossing cycle (Ct) values were compared. ‡P<0.05; †P<0.01.
# [4] = system: F4/80-positive interstitial macrophages; assay: F4/80 confocal staining of UUO kidneys; type: in vivo, mice
# Method: UUO was performed on 8 week-old wild-type male mice on a C57BL6 background. […] The kidneys (obstructed and contralateral) were harvested at day land day 14 after UUO. Macrophage accumulation was analyzed by confocal staining using F4/80 rat anti-mouse macrophage monoclonal antibody (Serotec Ltd., Oxford, UK).
# UUO kidneys = assay: Total kidney collagen (hydroxyproline) in UUO kidneys; type: in vivo, mice; settings: for reduction of total kidney collagen content: day 14 after UUO
# Method: (§3) Cysteamine bitartrate, the bitartrate salt of cysteamine is known commercially as Cystagon®. […] Both doses were well-tolerated and measured serum levels of cysteamine were appropriate.
# Unilateral ureteral obstruction (UUO) was performed on 8 week-old wild-type male mice on a C57BL6 background. […] Groups of mice (n=8-10 mice per group at each time-point) were studied 3, 7, 14, and 21 days after the onset of chronic injury induced by UUO.
# Total collagen was measured as hydroxyproline concentration in hydrolysates extracted from frozen normal (unobstructed) and UUO kidney samples. […] Collagen reduction was confirmed by sirius red staining
# [5] = system: α-SMA-positive myofibroblasts; assay: α-SMA immunoperoxidase staining of UUO kidneys; type: in vivo, mice
# Method: Myofibroblast activation and accumulation was examined after UUO by measuring the expression of α-smooth muscle actin (α-SMA), a marker of myofibroblast activation. Interstitial myofibroblasts are the primary matrix-producing cell in response to kidney injury. […] Cell proliferation was measured by counting BrdU positive cells using a monoclonal anti-BrdU antibody. Myofibroblast recruitment was quantified after immunoperoxidase staining using peroxidase-conjugated murine anti-human α-smooth muscle actin (α-SMA) 1A4 monoclonal antibody (Sigma).
# TGF-β receptor 1 = assay: Real-time PCR of profibrotic cytokines in UUO kidneys: TGF-β receptor; type: in vivo; settings: vs control mice; for down-regulation of TGF-β receptor mRNA levels: day 14 after UUO
# Method: (§4) The expression patterns of pro-inflammatory and pro-fibrotic cytokines were investigated at day 7 and day 14 in total kidney homogenate by semi-quantitative real time qPCR.
# (§5) UUO was performed on 8 week-old wild-type male mice on a C57BL6 background. […] The kidneys (obstructed and contralateral) were harvested at day land day 14 after UUO.
# (§6) Semi-quantitative real-time PCR was performed with specific primers to TGF-β and TGF-β receptor 1 genes using iCycler (Bio-Rad) with standard protocol. […] Semi-quantitative real-time PCR data was analyzed with REST software using both GAPDH and 18S as reference genes. Each sample was performed in triplicate. (‡P<0.05, †P<0.01).
# TGF-β = assay: Real-time PCR of profibrotic cytokines in UUO kidneys: TGF-β; type: in vivo; settings: vs control mice; for down-regulation of TGF-β mRNA levels: day 14 after UUO
# Method: as §4, §5, §6
# E-cadherin = E-cadherin immunoblotting in UUO mice; type: in vivo; settings: treated UUO mice
# Text: as §3
# procollagen I = assay: ECM gene mRNA by real-time qPCR in UUO kidneys: procollagen I; type: in vivo, mice; settings: 600 mg/kg
# Method: as §1, §2
# procollagen III = assay: ECM gene mRNA by real-time qPCR in UUO kidneys: procollagen III; type: in vivo, mice; settings: day 7 after UUO
# Method: as §1, §2
# [6] = system: IL-1β, TNF-α, IL-6, Gal-3, and Endo180; assay: Real-time qPCR of pro-inflammatory and pro-fibrotic cytokines in UUO kidneys; type: in vivo; settings: day 14 after UUO, vs control mice
# Method: as §4, §5
# [7] = system: intracellular cystine (circulating white blood cells); settings: cited from earlier work
# [8] = system: total kidney thiol content; assay: Total kidney thiol content in UUO mice; type: in vivo
# Method: In order to investigate the importance of total redox status during fibrotic injury, total kidney thiol content was measured as an indicator of antioxidant status.
# UUO was performed on 8 week-old wild-type male mice on a C57BL6 background (n=5/group). […] The kidneys (obstructed and contralateral) were harvested at days 7, 14 and 21 after UUO. Tissue from contralateral and UUO kidneys was processed in antioxidant buffer and analyzed for total thiol content fluorometrically and normalized to protein content using a Measure-iT™ Thiol Assay Kit (Invitrogen).
# Nox2, Nox4, and SOD1 = assay: Real-time qPCR of oxidant and anti-oxidant genes in UUO mice; type: in vivo; settings: day 7 and day 14, qPCR (data not shown)
# Text: In addition, there was no difference between cysteamine-treated and control mice in the modulation of the expression of the oxidant and anti-oxidant genes Nox2, Nox4, and SOD1 as determined by semi-quantitative real time qPCR at day 7 and day 14 (data not shown).
# [9] = delivery to the small intestine; cited from earlier work
# TGase = target: T1, TGase (Homo sapiens, UniProt P21980); settings: in vitro, Jeon et al. 2004; cited from earlier work
# T1 sequence (P21980 1-687): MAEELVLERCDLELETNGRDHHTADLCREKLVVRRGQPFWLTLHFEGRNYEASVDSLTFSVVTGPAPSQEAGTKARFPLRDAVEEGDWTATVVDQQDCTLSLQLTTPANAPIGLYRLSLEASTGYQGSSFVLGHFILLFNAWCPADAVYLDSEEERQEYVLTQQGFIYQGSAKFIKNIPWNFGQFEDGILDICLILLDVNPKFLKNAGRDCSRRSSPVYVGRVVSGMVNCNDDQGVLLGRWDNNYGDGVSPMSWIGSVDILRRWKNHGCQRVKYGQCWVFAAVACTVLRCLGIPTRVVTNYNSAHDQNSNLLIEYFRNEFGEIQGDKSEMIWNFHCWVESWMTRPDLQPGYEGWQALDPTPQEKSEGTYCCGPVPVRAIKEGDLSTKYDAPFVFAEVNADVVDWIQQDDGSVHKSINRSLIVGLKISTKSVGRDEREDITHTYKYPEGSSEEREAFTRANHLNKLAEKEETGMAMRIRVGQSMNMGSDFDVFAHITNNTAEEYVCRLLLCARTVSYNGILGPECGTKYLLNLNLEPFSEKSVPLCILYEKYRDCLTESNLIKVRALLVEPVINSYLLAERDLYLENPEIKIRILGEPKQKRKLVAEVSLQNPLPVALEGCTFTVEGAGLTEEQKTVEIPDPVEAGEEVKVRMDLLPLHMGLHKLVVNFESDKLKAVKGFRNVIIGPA
# [10] = system: Transglutaminase 2 (TGase2); assay: TGase2 protein expression in UUO kidneys; type: in vivo, mice; settings: 400 mg/kg or 600 mg/kg
# Text: Transglutaminases (TGases) are a family of enzymes that catalyze the transamidation reaction between the γ-carboxyamide of a peptide-bound glutamine residue and the ϵ-amino group of a peptide-bound lysine residue or the primary amine group of a polyamine via forming a thioester acylenzyme intermediate at the active site cysteine. Thus, TGase activity produces cross-linked proteins or amine conjugates. One type of TGase, TGase2, acts to cross link ECM proteins, particularly Collagen III. Cross linking renders proteins resistant to degradation, which is thought to result in accelerated matrix deposition.
# [11] = high doses (600 mg/kg), day 7 after UUO
compound,measurement,setting,value
NCCS [cysteamine HCL],total renal collagen levels (hydroxyproline),"[1]; 400 mg/kg dose group, daily IP, day 14 after UUO, compared to placebo (PBS)",decreased total collagen levels
same,deaths,"[1]; IP, high dose levels",several mice died
same,adverse signs observed,"[1]; mouse, in vivo, ip",Possible seizures and somnolence
NCCS [cysteamine bitartrate],Cmax,"[2]; read-out: Cmax levels of cysteamine, C57BL/6 mice, 600 mg/kg in drinking water for 3 days",15 to 20 µM
NCCS.O=C(O)C(O)C(O)C(=O)O (centres unmarked) [cysteamine bitartrate],severity of fibrosis as measured by total collagen content,[3]; 400 mg/kg in drinking water,attenuated
same,severity of fibrosis as measured by total collagen content,[3]; 600 mg/kg in drinking water,attenuated
same,deaths or abnormal behavior,"[3]; 200, 400, 600 mg/kg in drinking water, 14 days, even at high doses",No deaths or abnormal behavior was observed
same,reduction in kidney fibronectin mRNA levels,fibronectin; 400 mg/kg,~40%
same,reduction in fibronectin mRNA levels,fibronectin; 600 mg/kg,~60%
same,plasma levels of cysteamine at the time of sacrifice,[2]; 400 mg/kg in drinking water,0.81±0.091 Ilmole/L
same,plasma levels of cysteamine at the time of sacrifice,[2]; 600 mg/kg in drinking water,1.04±0.151 Ilmole/L
same,"serum levels of cysteamine, night vs day","[2]; C57BL/6 mice, 600 mg/kg in drinking water for 3 days",higher serum levels of cysteamine are achieved at night and lower levels during the day
same,reduction in interstitial macrophage infiltration,"[4]; 600 mg/kg/day, day 14 after UUO",34%
same,"interstitial macrophage infiltration, treated vs control",[4]; day 7 after UUO,No difference
same,tolerability,"UUO kidneys; 400 mg/kg/day and 600 mg/kg/day, UUO mice",well-tolerated
same,reduction of total kidney collagen content,"UUO kidneys; 400 mg/kg/day in drinking water, vs untreated",21%
same,reduction of total kidney collagen content,"UUO kidneys; 600 mg/kg/day in drinking water, vs untreated",21%
same,decrease in collagen levels,"UUO kidneys; 600 mg/kg/day in drinking water, day 21 after UUO, vs untreated",25%
same,collagen reduction by sirius red staining,UUO kidneys; UUO kidneys,confirmed
same,kidney collagen levels,"UUO kidneys; both doses, 400 and 600 mg/kg/day, by day 14, P<0.01",statistically significant reductions
same,"total collagen, treated vs control",UUO kidneys; day 7 after UUO,no difference
same,reduction in α-SMA-positive myofibroblasts,"[5]; 400 mg/kg, day 14 after UUO",~30%
same,reduction in α-SMA-positive myofibroblasts,"[5]; 600 mg/kg, day 14 after UUO",~30%
same,down-regulation of TGF-β receptor mRNA levels,TGF-β receptor 1; 400 mg/kg,47%
same,down-regulation of TGF-β receptor mRNA levels,TGF-β receptor 1; 600 mg/kg,64%
same,up-regulation of TGF-β receptor expression,TGF-β receptor 1; [11],approximately 60%
same,down-regulation of TGF-β mRNA levels,TGF-β; 400 mg/kg,47%
same,down-regulation of TGF-β mRNA levels,TGF-β; 600 mg/kg,64%
same,up-regulation of TGF-β expression,TGF-β; [11],approximately 60%
same,increase of E-cadherin levels (marker of tubular damage),E-cadherin,1.3 fold
same,reduction in procollagen I mRNA levels,procollagen I; day 7 after UUO,~60%
same,procollagen I mRNA levels lower,procollagen I; day 14 after UUO,56%
same,reduction in procollagen III mRNA levels,procollagen III; 400 mg/kg,~40%
same,reduction in procollagen III mRNA levels,procollagen III; 600 mg/kg,~60%
same,"expression levels of IL-1β, TNF-α, IL-6, Gal-3, and Endo180",[6],No difference
"NCCS [cysteamine, β-mercaptoethylamine]",lowering of leukocyte cystine levels,"[7]; children with cystinosis, enteral administration (Dohil et al.)",prolonged efficacy in the lowering of leukocyte cystine levels
same,progression to kidney failure/transplantation,"[7]; subjects with cystinosis, taken regularly",reduce the rate of progression to kidney failure/transplantation
same,depletion of intracellular cystine,"[7]; taken regularly, measured in circulating white blood cells",up to 90%
same,total kidney thiol content in UUO kidney,"[8]; 400 mg/kg or 600 mg/kg, day 7 after UUO",remained at levels close to that of the contralateral kidney
same,increase of total kidney thiol content,"[8]; high dose (600 mg/kg), compared to controls",36%
same,"expression of oxidant and anti-oxidant genes Nox2, Nox4, and SOD1, treated vs control","Nox2, Nox4, and SOD1",no difference
same,Cmax,[9],increases Cmax
same,area under the curve (AUC),[9],increases area under the curve (AUC)
same,time to decrease in leukocyte cystine,[9],within an hour
same,reduction in α-SMA-positive myofibroblasts,"[5]; 400 mg/kg, day 7 after UUO",38%
same,reduction in α-SMA-positive myofibroblasts,"[5]; 400 mg/kg, day 14 after UUO",24%
same,reduction in α-SMA-positive myofibroblasts,"[5]; 600 mg/kg, day 7 after UUO",47%
same,reduction in α-SMA-positive myofibroblasts,"[5]; 600 mg/kg, day 14 after UUO",33%
same,TGase inhibition,TGase,less potent inhibitor of TGase than both cystamine and primary amines
same,TGase2 protein expression in UUO kidneys,[10],no difference in TGase2 protein expression

# Source: patent US9925154B2 (Seattle Children's Hospital, priority 2011, dated 2018)
